# Laboratory results taken from publication PMC3303751, “Development of Tyrosine-Based Radiotracer ^99mTc-N4-Tyrosine for Breast Cancer Imaging” (Journal of Biomedicine and Biotechnology, 2012).
# How the values were obtained:
# [1] = Partition coefficient (1-octanol/sterile water); assay type: physicochemical; conditions: room temperature
# Description: To determine the lipophilicity, 20 μL of ^99mTc-N4-Tyrosine was added into an equal volume mixture of 1-octanol and sterile water in a centrifuge tube. The mixture was vortexed at room temperature for 1 minute and then centrifuged at 5,000 rpm for 5 minutes to allow phase separation. From each phase, 0.1 mL of the aliquot was taken out, and the radioactivity was measured by gamma counter (Cobra Quantum, Packard, MN, USA). The measurement was repeated 3 times, and care was taken to avoid cross-contamination between the phases. The partition coefficient value, expressed as log P, was calculated using the following equation:
# (1) Log P= log(radioactivity in 1‐octanol layer/radioactivity in sterile water layer)
# [2] = tested on: rat breast tumor cell line 13762; test: In vitro cellular uptake; assay type: cell-based; conditions: 13762 cells
# Description: Rat breast tumor cell line 13762 (American Type Culture Collection, Rockville, MD, USA) was used for both in vitro studies and to create the animal model for in vivo evaluation. All cells were maintained in Dulbecco's modified Eagle's medium and nutrient mixture F-12 Ham (DMEM/F12; GIBCO, Grand Island, NY) at 37°C in a humidified atmosphere containing 5% CO2.
# For in vitro cellular uptake analysis, cells were plated onto 6-well tissue culture plates (2 × 10^5 cells/well) 48 hours before adding the radiotracers and incubated with ^99mTc-N4-Tyrosine (0.05 mg/well, 8 μCi/well), ^99mTc-N4 (0.025 mg/well, 8 μCi/well), or ^18F-FDG (8 μCi/well) for 0–4 hours. After incubation, cells were washed with ice-cold phosphate-buffered solution twice and detached using a treatment of 0.5 mL of trypsin for 5 minutes. Cells were then collected, and the radioactivity of the cells was measured in triplicate with a gamma counter (Cobra Quantum). Radioactivity was expressed as mean ± standard deviation (SD) percent of cellular uptake (%Uptake).
# [3] = Blood clearance in normal rats; assay type: in vivo; conditions: normal female Fischer 344 rats, i.v. 30 μCi
# Description: All animal work was carried out in the Small Animal Imaging Facility at MD Anderson under a protocol approved by the Institutional Animal Care and Use Committee. For blood clearance analysis, 3 normal female Fischer 344 rats (150 ± 25 g; Harlan Sprague-Dawley, Indianapolis, IN, USA) were intravenously injected with 30 μCi of ^99mTc-N4-Tyrosine. Blood samples (n = 3/rat) were drawn from each rat through the lateral tail vein by microliter pipette (10 μL) at several time points between 5 minutes and 24 hours after injection. The blood samples were measured for radioactivity by gamma counter, and the radioactivity was expressed as a percentage of the injected dose per gram of blood (%ID/g).
# [4] = Tissue distribution in normal rats; assay type: in vivo, Fischer 344 rats; conditions: for tissue distribution, Blood / tissue distribution, Bone and joint / tissue distribution, Brain / tissue distribution, Heart / tissue distribution, Intestine / tissue distribution, Kidney / tissue distribution, Liver / tissue distribution, Lung / tissue distribution, Muscle / tissue distribution, Pancreas / tissue distribution, Spleen / tissue distribution, Stomach / tissue distribution, Thyroid: i.v.
# Description: Tissue distribution studies of ^99mTc-N4-Tyrosine were conducted using normal female Fischer 344 rats (150 ± 25 g, n = 9). The rats were divided into 3 groups, and each rat was injected intravenously with 25 ± 0.5 μCi of ^99mTc-N4-Tyrosine. Each group was examined at 1 of 3 time points (0.5, 2, or 4 hours after injection). At each time point, the rats were killed, and the selected tissues were excised, weighed, and measured for radioactivity by gamma counter. For each sample, radioactivity was expressed as mean percentage of the injected dose per gram of tissue wet weight (%ID/g). Counts from a 1/10 diluted sample of the original injection were used as a reference.
# [5] = OLINDA/EXM dosimetry estimates; design: species or system human (70 kg standard man model)
# Text: Rat absorbed dose estimates for ^99mTc-N4-Tyrosine were computed from biodistribution data. Individual organ and whole-body time-activity curves were fitted to exponential functions using OLINDA/EXM software (version 1.1; Vanderbilt University, Nashville, TN, USA). These functions were then integrated analytically to determine the area under the curve to yield the residence time of ^99mTc-N4-Tyrosine in each organ. It was assumed that the injected activity of ^99mTc-N4-Tyrosine was uniformly distributed throughout the body immediately following injection. Mass correction factors were used to account for the different ratios of organs to total body weight and different scaling of residence times between rats and humans. Residence times were then used to calculate target organ absorbed radiation doses for a 70 kg standard man model using the OLINDA/EXM software.
# [6] = tested on: breast tumor cell line 13762 tumors; test: Planar scintigraphic imaging in breast tumor-bearing rats; assay type: in vivo, Fischer 344 rats; conditions: for Tumor %ID (percent of injected dose in the tumor) / tumor-to-muscle (T/M) ratio: i.v. 300 μCi/rat
# Description: Cells from the breast tumor cell line 13762, suspended in phosphate-buffered solution (10^5 cells/0.1 mL solution per rat), were injected subcutaneously into the right calf muscle of female Fischer 344 rats (n = 9). Planar scintigraphic imaging of ^99mTc-N4-Tyrosine was performed 12–14 days after inoculation when tumors reached approximately 1 cm in diameter. The breast tumor-bearing rats (n = 3/time point) were anesthetized and injected intravenously with ^99mTc-N4-Tyrosine (0.3 mg/rat, 300 μCi/rat), and images were acquired at 30, 120, and 240 minutes after administration of tracers. Planar scintigraphic images were obtained using M-CAM (Siemens Medical Solutions, Hoffman Estates, IL, USA) equipped with a low-energy high-resolution collimator. Computer-outlined regions of interest (ROIs in counts per pixel) between tumor and muscle tissue were used to calculate tumor-to-muscle (T/M) ratios. Percent of injected dose (%ID) in the tumor was also calculated from the reference standard, which was 1/10 of the original injection activity of ^99mTc-N4-Tyrosine.
# [7] = tested on: breast tumor (13762) and turpentine oil-induced inflammation; test: Tumor and inflammation uptake comparison, planar scintigraphy; assay type: in vivo, Fischer 344 rats; conditions: tumor- and inflammation-bearing rats
# Description: To investigate whether ^99mTc-N4-Tyrosine can differentiate tumor tissue from inflammatory tissue, a rat model bearing both a mammary tumor and tissue with turpentine oil-induced inflammation was created. Rat breast tumor cells (from cell line 13762; 10^5 cells/0.1 mL phosphate-buffered solution per rat) were injected into the right calf muscles of 3 female Fischer 344 rats. After the tumors reached 1 cm in diameter, turpentine oil (0.1 mL/rat) was injected into the left calf muscles of the rats to induce inflammation. The anesthetized rats were injected intravenously with ^99mTc-N4-Tyrosine 24 hours after the turpentine injection. Planar scintigraphic images were acquired at 30, 120, and 240 minutes after the ^99mTc-N4-Tyrosine injection, and ROIs of the tumor, inflamed tissue, and muscle were used to calculate the tumor-to-muscle ratios (T/Ms), inflammation-to-muscle ratios (I/Ms), and tumor-to-inflammation ratios (T/Is), respectively. The same animal model was used to evaluate ^18F-FDG. Micro-PET imaging of ^18F-FDG was performed using an R4 micro-PET scanner (Concorde Microsystems, Knoxville, TN, USA). Three breast tumor- and inflammation-bearing rats were injected intravenously with ^18F-FDG (500 μCi/rat), and dynamic PET scans with a spatial resolution of 2.2 mm were obtained at 30, 60, and 90 minutes after ^18F-FDG injection. PET images were reconstructed by using the ordered subset expectation maximization (OSEM) algorithm. T/M, I/M, and T/I ratios were calculated using the regional radioactivity concentrations (μCi/cm^3) that were estimated from the average pixels within ROIs drawn around the tumor, inflamed tissue, or muscle on transverse slices of the reconstructed image sets.
# [8] = 15 mCi per patient, 70 kg adult man
substance,measurement,setting,value
"^99mTc-O-[3-(1,4,8,11-tetraazabicyclohexadecane)-propyl]-tyrosine [^99mTc-N4-Tyrosine]",log P,[1],−2.83 ± 0.082
same,mean %Uptake compared with ^18F-FDG,[2]; 8 μCi/well,much higher than that of ^18F-FDG
same,cellular uptake kinetics (%Uptake),[2]; incubation 15-240 minutes,increased dramatically up to 240 minutes
same,plasma half-life of the distribution phase (t1/2α),[3],9.31 ± 0.759 min
same,plasma half-life of the elimination phase (t1/2β),[3],90.14 ± 1.901 min
same,"tissue distribution, Blood",[4]; 30 min after injection,0.88 %ID/g
same,"tissue distribution, Bone and joint",[4]; 30 min after injection,0.24 %ID/g
same,"tissue distribution, Brain",[4]; 30 min after injection,0.03 %ID/g
same,"tissue distribution, Heart",[4]; 30 min after injection,0.21 %ID/g
same,"tissue distribution, Intestine",[4]; 30 min after injection,0.34 %ID/g
same,"tissue distribution, Kidney",[4]; 30 min after injection,11.05 %ID/g
same,"tissue distribution, Liver",[4]; 30 min after injection,1.15 %ID/g
same,"tissue distribution, Lung",[4]; 30 min after injection,0.50 %ID/g
same,"tissue distribution, Muscle",[4]; 30 min after injection,0.07 %ID/g
same,"tissue distribution, Pancreas",[4]; 30 min after injection,0.17 %ID/g
same,"tissue distribution, Spleen",[4]; 30 min after injection,0.94 %ID/g
same,"tissue distribution, Stomach",[4]; 30 min after injection,0.20 %ID/g
same,"tissue distribution, Thyroid",[4]; 30 min after injection,0.34 %ID/g
same,"tissue distribution, Blood",[4]; 120 min after injection,0.20 %ID/g
same,"tissue distribution, Bone and joint",[4]; 120 min after injection,0.15 %ID/g
same,"tissue distribution, Brain",[4]; 120 min after injection,0.02 %ID/g
same,"tissue distribution, Heart",[4]; 120 min after injection,0.06 %ID/g
same,"tissue distribution, Intestine",[4]; 120 min after injection,0.13 %ID/g
same,"tissue distribution, Kidney",[4]; 120 min after injection,12.34 %ID/g
same,"tissue distribution, Liver",[4]; 120 min after injection,0.70 %ID/g
same,"tissue distribution, Lung",[4]; 120 min after injection,0.19 %ID/g
same,"tissue distribution, Muscle",[4]; 120 min after injection,0.03 %ID/g
same,"tissue distribution, Pancreas",[4]; 120 min after injection,0.07 %ID/g
same,"tissue distribution, Spleen",[4]; 120 min after injection,0.76 %ID/g
same,"tissue distribution, Stomach",[4]; 120 min after injection,0.08 %ID/g
same,"tissue distribution, Thyroid",[4]; 120 min after injection,0.10 %ID/g
same,"tissue distribution, Blood",[4]; 240 min after injection,0.17 %ID/g
same,"tissue distribution, Bone and joint",[4]; 240 min after injection,0.12 %ID/g
same,"tissue distribution, Brain",[4]; 240 min after injection,0.01 %ID/g
same,"tissue distribution, Heart",[4]; 240 min after injection,0.05 %ID/g
same,"tissue distribution, Intestine",[4]; 240 min after injection,0.11 %ID/g
same,"tissue distribution, Kidney",[4]; 240 min after injection,12.40 %ID/g
same,"tissue distribution, Liver",[4]; 240 min after injection,0.67 %ID/g
same,"tissue distribution, Lung",[4]; 240 min after injection,0.14 %ID/g
same,"tissue distribution, Muscle",[4]; 240 min after injection,0.02 %ID/g
same,"tissue distribution, Pancreas",[4]; 240 min after injection,0.05 %ID/g
same,"tissue distribution, Spleen",[4]; 240 min after injection,0.63 %ID/g
same,"tissue distribution, Stomach",[4]; 240 min after injection,0.06 %ID/g
same,"tissue distribution, Thyroid",[4]; 240 min after injection,0.09 %ID/g
same,stability in vivo,[4]; inferred from low thyroid and stomach uptake,high stability in vivo
same,"Human dose (15 mCi), Adrenals",[5]; [8],2.58E − 01 rem
same,"Human dose (15 mCi), Brain",[5]; [8],2.61E − 02 rem
same,"Human dose (15 mCi), Breasts",[5]; [8],7.08E − 02 rem
same,"Human dose (15 mCi), Effective dose",[5]; [8],1.22E − 01 rem
same,"Human dose (15 mCi), Effective dose equivalent",[5]; [8],3.17E − 01 rem
same,"Human dose (15 mCi), Gallbladder wall",[5]; [8],2.10E − 01 rem
same,"Human dose (15 mCi), Heart wall",[5]; [8],4.73E − 01 rem
same,"Human dose (15 mCi), Kidneys",[5]; [8],2.70E + 00 rem
same,"Human dose (15 mCi), Liver",[5]; [8],3.06E − 01 rem
same,"Human dose (15 mCi), Lower large intestine wall",[5]; [8],9.00E − 02 rem
same,"Human dose (15 mCi), Lungs",[5]; [8],1.26E − 01 rem
same,"Human dose (15 mCi), Muscle",[5]; [8],7.44E − 02 rem
same,"Human dose (15 mCi), Osteogenic cells",[5]; [8],2.90E − 01 rem
same,"Human dose (15 mCi), Ovaries",[5]; [8],9.80E − 02 rem
same,"Human dose (15 mCi), Pancreas",[5]; [8],2.09E − 01 rem
same,"Human dose (15 mCi), Red marrow",[5]; [8],1.06E − 01 rem
same,"Human dose (15 mCi), Skin",[5]; [8],4.95E − 02 rem
same,"Human dose (15 mCi), Small intestine",[5]; [8],1.50E − 01 rem
same,"Human dose (15 mCi), Spleen",[5]; [8],3.14E − 01 rem
same,"Human dose (15 mCi), Stomach wall",[5]; [8],1.38E − 01 rem
same,"Human dose (15 mCi), Testes",[5]; [8],4.40E − 02 rem
same,"Human dose (15 mCi), Thymus",[5]; [8],1.27E − 01 rem
same,"Human dose (15 mCi), Thyroid",[5]; [8],6.92E − 02 rem
same,"Human dose (15 mCi), Total Body",[5]; [8],1.10E − 01 rem
same,"Human dose (15 mCi), Upper large intestine wall",[5]; [8],1.36E − 01 rem
same,"Human dose (15 mCi), Urinary bladder wall",[5]; [8],7.71E − 02 rem
same,"Human dose (15 mCi), Uterus",[5]; [8],9.80E − 02 rem
same,Total rem absorbed by each organ versus US FDA limits for radioactive research drugs,[5]; proposed injection of 15 mCi per patient,below these limits
same,tumor detection by planar scintigraphic imaging,"[6]; all time points (30, 120, 240 minutes)",clearly detected
same,Tumor %ID (percent of injected dose in the tumor),[6]; 30 minutes,1.82 %ID
same,tumor-to-muscle (T/M) ratio,[6]; 30 minutes,5.12
same,Tumor %ID (percent of injected dose in the tumor),[6]; 120 minutes,1.87 %ID
same,tumor-to-muscle (T/M) ratio,[6]; 120 minutes,4.88
same,Tumor %ID (percent of injected dose in the tumor),[6]; 240 minutes,1.71 %ID
same,tumor-to-muscle (T/M) ratio,[6]; 240 minutes,5.2
same,inflammation-to-muscle (I/M) ratio,[7]; 30 min,4.26
same,tumor-to-inflammation (T/I) ratio,[7]; 30 min,1.2
same,tumor-to-muscle (T/M) ratio,[7]; 30 min,5.12
same,inflammation-to-muscle (I/M) ratio,[7]; 120 min,3.62
same,tumor-to-inflammation (T/I) ratio,[7]; 120 min,1.14
same,tumor-to-muscle (T/M) ratio,[7]; 120 min,4.11
same,inflammation-to-muscle (I/M) ratio,[7]; 240 min,2.45
same,tumor-to-inflammation (T/I) ratio,[7]; 240 min,1.32
same,tumor-to-muscle (T/M) ratio,[7]; 240 min,3.24
same,tumor-to-inflammation (T/I) ratios,[7]; all time points,greater than 1
